Laboratory results as given in patent US4789731A, “Semi-synthetic peptide antibiotics” (Bristol-Myers Company, priority 1987, dated 1988).

Assays:
Assay type in all cases: in vivo
Details in all cases: mice
P388 leukemia [1] = test: Antitumor effect against P388 leukemia, QD 1→9 ip
Protocol: (§1) Antitumor activity of representative compounds of the present invention was determined using in vivo murine transplantable P388 leukemia and B16 melanoma models.
(§2) P388 leukemia: female CDF1 and male BDF1 mice were inoculated by intraperitoneal injection of 0.8 ml diluted ascitic fluid containing 10^6 cells.
(§3) Test materials were dissolved in 0.9% saline containing 10% dimethyl sulfoxide and graded doses of them were administered to mice intraperitoneally 24 hrs after tumor implantation. Two dosing schedules were used for the P388 leukemia experiment: once daily on day 1 through day 3 (QD 1→3); and once daily on day 1 through day 9(QD 1→9). The QD 1→9 schedule was used for the B16 melanoma experiment.
(§4) Antitumor activity is evaluated as the increase in median survival time (MST) of treated (T) and control (C) animals for various dosage regimens expressed as a percentage ratio (T/C %=MST of treated.div.MST of control×100). For both in vivo P388 leukemia and in vivo B16 melanoma models, values for percentage ratios of 125 and above indicate significant antitumor effect.

B16 melanoma = test: Antitumor effect against B16 melanoma, QD 1→9 ip
Protocol: as §1
B16 melanoma: male BDF1 mice were implanted with 0.5 ml of a 10% tumor brei intraperitoneally.
as §3, §4

P388 leukemia [2] = test: Antitumor effect against P388 leukemia, QD 1→3 ip
Protocol: as §1, §2, §3, §4

CCCCCCC/C=C/C=C/C(=O)N[C@H](C(=O)N[C@H]1C[C@@H](O)CCNC(=O)/C=C/[C@H](C)NC1=O)[C@@H](C)O [BU-2867T A]
MST (% T/C) (P388 leukemia [1]; 0.13 mg/kg/day): 130 % T/C
MST (% T/C) (P388 leukemia [1]; 0.25 mg/kg/day): 150 % T/C
MST (% T/C) (P388 leukemia [1]; 0.5 mg/kg/day): 155 % T/C
MST (% T/C) (P388 leukemia [1]; 0.63 mg/kg/day): 110 % T/C
MST (% T/C) (P388 leukemia [1]; 1 mg/kg/day): 190 % T/C
MST (% T/C) (P388 leukemia [1]; 2 mg/kg/day): Tox
MST (% T/C) (B16 melanoma; 1 mg/kg/day): 116 % T/C
MST (% T/C) (B16 melanoma; 2 mg/kg/day): Tox
MST (% T/C) (B16 melanoma; .13 mg/kg/day): 97 % T/C
MST (% T/C) (B16 melanoma; .25 mg/kg/day): 100 % T/C
MST (% T/C) (B16 melanoma; .5 mg/kg/day): 113 % T/C
MST (% T/C) (P388 leukemia [2]; 1 mg/kg/day): 145 % T/C
MST (% T/C) (P388 leukemia [2]; 3 mg/kg/day): Tox
MST (% T/C) (P388 leukemia [2]; .3 mg/kg/day): 130 % T/C

CCCCCC=CCCC=CC=CC(=O)NC(C(=O)NC1CC(O)CCNC(=O)C=CC(C)NC1=O)C(C)O (centres unmarked) [BU-2867T B]
MST (% T/C) (P388 leukemia [1]; 0.25 mg/kg/day): 130 % T/C
MST (% T/C) (P388 leukemia [1]; 0.63 mg/kg/day): 130 % T/C
MST (% T/C) (P388 leukemia [1]; 1 mg/kg/day): 170 % T/C
MST (% T/C) (P388 leukemia [1]; 2 mg/kg/day): 180 % T/C
MST (% T/C) (P388 leukemia [1]; 4 mg/kg/day): Tox
MST (% T/C) (B16 melanoma; 2 mg/kg/day): Tox

CCCCCCCCCC=CC=CC(=O)NC(C(=O)NC1CC(O)CCNC(=O)C=CC(C)NC1=O)C(C)O (centres unmarked) [BU-2867T C]
MST (% T/C) (P388 leukemia [1]; 0.13 mg/kg/day): 130 % T/C
MST (% T/C) (P388 leukemia [1]; 0.25 mg/kg/day): 160 % T/C
MST (% T/C) (P388 leukemia [1]; 1 mg/kg/day): 170 % T/C
MST (% T/C) (P388 leukemia [1]; 4 mg/kg/day): 65 % T/C
MST (% T/C) (B16 melanoma; 4 mg/kg/day): Tox
MST (% T/C) (P388 leukemia [2]; 10 mg/kg/day): 57 % T/C

CCCCCCCCCCCC(=O)N[C@H](C(=O)NC1CC(O)CCNC(=O)/C=C/C(C)NC1=O)[C@@H](C)O (some centres unmarked) [Example 1, n-Dodecanoyl-III]
MST (% T/C) (P388 leukemia [1]; 1 mg/kg/day): 150 % T/C
MST (% T/C) (P388 leukemia [2]; 1 mg/kg/day): 130 % T/C

CCCCCCCCCC(=O)N[C@H](C(=O)NC1CC(O)CCNC(=O)/C=C/C(C)NC1=O)[C@@H](C)O (some centres unmarked) [Example 2, n-Decanoyl-III]
MST (% T/C) (P388 leukemia [2]; 10 mg/kg/day): 64 % T/C

CCCCCCCCCCCCCC(=O)N[C@H](C(=O)NC1CC(O)CCNC(=O)/C=C/C(C)NC1=O)[C@@H](C)O (some centres unmarked) [Example 3, n-Tetradecanoyl-III]
MST (% T/C) (P388 leukemia [1]; 1 mg/kg/day): 150 % T/C
MST (% T/C) (P388 leukemia [1]; 2 mg/kg/day): 150 % T/C
MST (% T/C) (P388 leukemia [2]; 10 mg/kg/day): 55 % T/C

CCCCCCCCOc1ccc(C(=O)N[C@H](C(=O)NC2CC(O)CCNC(=O)/C=C/C(C)NC2=O)[C@@H](C)O)cc1 (some centres unmarked) [Example 6, p-n-Octyloxybenzoyl-III]
MST (% T/C) (P388 leukemia [1]; 0.13 mg/kg/day): 140 % T/C
MST (% T/C) (P388 leukemia [1]; 0.25 mg/kg/day): 150 % T/C
MST (% T/C) (P388 leukemia [1]; 0.63 mg/kg/day): 120 % T/C
MST (% T/C) (P388 leukemia [1]; 1 mg/kg/day): Tox
MST (% T/C) (P388 leukemia [2]; 1 mg/kg/day): 150 % T/C
MST (% T/C) (P388 leukemia [2]; 3 mg/kg/day): Tox

CCCCCCCCCCCCCCCC(=O)NC(C(=O)NC1CC(O)CCNC(=O)C=CC(C)NC1=O)C(C)O [Example 10, Palmitoyl-L-Threonyl-II]
MST (% T/C) (P388 leukemia [2]; 1 mg/kg/day): 114 % T/C
MST (% T/C) (P388 leukemia [2]; 3 mg/kg/day): 119 % T/C
MST (% T/C) (P388 leukemia [2]; 10 mg/kg/day): 138 % T/C
